Measured values: paper PMC7203344, “Sirtuin 1 Inhibiting Thiocyanates (S1th)—A New Class of Isotype Selective Inhibitors of NAD^+ Dependent Lysine Deacetylases” (Frontiers in Oncology, 2020)
“Also recorded” adds a separate entry of the source.

Columns and labels:
[1] = system: H3K9ac and p53K382ac in HeLa cells; test: Analysis of acetylation status in HeLa cells by western blotting; format: cell-based, human; conditions: 48 h, concentrations as in proliferation assay
Experimental: 5 × 10^4 cells were plated in 6-well plates and grown with the conditions and drug concentrations as described for the proliferation assay. Cells were harvested at 48 h and resuspendend in protein loading buffer. After sonication the samples were centrifuged at 14,000 rpm in an Eppendorf microcentrifuge (Eppendorf, DE) and the supernatants were analyzed by western-blot. The following antibodies were used: histone H3 (Cell Signaling #9715), histone H3K9ac (Cell Signaling # C5B11), GAPDH (Cell Signaling #D16H11), p53 (ThermoFisher #PA527822), and p53K382ac (Abcam 75754). Quantification was carried out using imageJ.

HeLa cells [2] = test: Colony forming assay with HeLa cells; format: cell-based, human; conditions: 7–10 days; concentrations as in proliferation assay
Experimental: (§1) For colony assays, 50 cells per well were seeded in 6-well plates and grown in the same conditions with the same drug concentrations as for the proliferation assays. In this case, the growth media containing the drugs was replaced every 48 h. After 7–10 days, when isolated colonies were formed, wells were washed with PBS, and cells were fixed with cold methanol for 5 min at RT. Cells were stained with crystal violet for 10 min at RT and washed with H2O. Images were acquired using iBright (Thermo Fisher Scientific, MA, USA). For quantification, cells of each well were resuspended in 10% glacial acetic acid to dissolve crystal violet whose levels were monitored by measuring absorbance at 590 nm. The experiment was performed in duplicates.

Sirt1 = target: T1, Sirt1 (Homo sapiens, UniProt Q96EB6); test: Fluorescent thermal shift assay (FTSA), Sirt1; format: binding
T1 construct: made in house; host or cells: E. coli BL21 Star (DE3)
T1 sequence (Q96EB6 134-747): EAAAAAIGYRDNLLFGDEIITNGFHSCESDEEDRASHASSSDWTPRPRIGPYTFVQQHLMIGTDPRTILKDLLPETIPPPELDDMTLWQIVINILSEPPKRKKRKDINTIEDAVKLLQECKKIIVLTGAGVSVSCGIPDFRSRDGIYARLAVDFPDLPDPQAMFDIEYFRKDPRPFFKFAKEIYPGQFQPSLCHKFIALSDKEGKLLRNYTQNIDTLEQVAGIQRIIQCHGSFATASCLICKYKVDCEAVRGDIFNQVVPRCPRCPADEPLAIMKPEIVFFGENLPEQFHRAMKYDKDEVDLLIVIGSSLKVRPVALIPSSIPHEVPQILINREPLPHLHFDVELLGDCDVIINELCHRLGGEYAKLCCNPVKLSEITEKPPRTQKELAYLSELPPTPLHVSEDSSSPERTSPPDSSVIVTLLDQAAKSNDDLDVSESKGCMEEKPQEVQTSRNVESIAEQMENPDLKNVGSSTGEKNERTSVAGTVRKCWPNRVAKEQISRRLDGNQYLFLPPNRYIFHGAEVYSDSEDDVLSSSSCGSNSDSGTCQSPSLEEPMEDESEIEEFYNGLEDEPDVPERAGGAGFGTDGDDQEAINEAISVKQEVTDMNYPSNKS
Experimental: In a 96-well plate (Hard-Shell® PCR-plates, 96-well, thin-wall, BioRAD, USA) 14 μL Sirt1_134−747 in assay buffer (0.3 mg/mL final assay concentration, 50 mM Tris/HCl, 137 mM NaCl, 2.7 mM KCl, 1 mM MgCL2, pH 8.0) were mixed with 1 μL inhibitor in DMSO (100 μM) or DMSO [final assay concentration 5% (v/v)] as a control and 5 μL SyproOrange (1:100 in assay buffer). The fluorescence intensity was monitored during a constant increase of temperature from 20 to 95°C, 1 K per 20 s, using a real-time-PCR-machine (C1000 TouchTM Thermal Cycler, CFX96TM Real-Time System, BioRAD, USA). Melting temperatures were calculated via GraphPad Prism according to a published procedure ([60]).

HeLa cells [3] = test: Wound healing assay with HeLa cells; format: cell-based, human
Experimental: For wound healing assay 6 × 10^5 cells per well were seeded in 6-well plates and grown for 24 h in DMEM containing 10% FBS. After 24 h, a lineal gap between cells was created in the middle of the plate by scratching the cell monolayer with a 1 mL pipette tip in the same position in each well. Once the scratching is done, plates were washed twice with PBS and then grown in DMEM containing 1% FBS and the drugs in the same concentrations as for the proliferation assay. As described previously, the growth media 1% FBS containing the drugs was replaced every 48 h. Images were acquired in an Optimal microscope (Leica microscopes, DE) using Leica Application Suite X (LAS X) every 24 h (0, 24, 48, and 72 h) until the gap closed. The quantification of the area of the gap at the indicated times was performed with Image J-MRI Wound Healing Tool. The experiment was performed only once.

[4] = system: γH2AX/H2AX levels in MEF cells; test: γH2AX level determination by western blot; format: cell-based, mouse
Experimental: Sirt1 WT and KO MEFS cells were treated with 10 μM EX-527, 12 μM S1th 13 (6), 20 μM S1th 12 (5), 30 μM S1th 10 (7) and 30 μM SirReal2 [Sirt2 inhibitor, synthesized according to ([62])] for 48 h. Oxidative stress was induced using 10 μM Camptothecin 2 h. Whole-cell extracts were performed according to the Dignam protocol ([63]). Primary antibodies used for the western blot were anti-H2AX and anti-γH2AX (ab11175 and ab2893 resp., Abcam, UK). Densiometric analysis of the western blots was performed with Quantity One software (Bio-Rad Laboratories, Inc., USA).

HeLa cells [5] = test: Cell proliferation assay with HeLa cells; format: cell-based, human; conditions: EX-527 20 μM, S1th 13 12 μM, S1th 12 20 μM, S1th 10 30 μM; up to 120 h
Experimental: (§2) 1.5 × 10^4 cells/well were seeded in 24-well plates and grown in DMEM 10% in presence of DMSO, 20 μM EX-527, 12 μM S1th 13, 20 μM S1th 12, or 30 μM S1th 10. The growth media containing the drugs was replaced every 48 h. Cells were collected and counted at the indicated times starting 24 h after seeding (0, 24, 48, 72, 96, and 120 h). The experiment was performed twice in duplicates.

MCF7 cells [6] = test: Colony forming assay with MCF7 cells; format: cell-based, human; conditions: concentrations as for HeLa
Experimental: as §1

MCF7 cells [7] = test: Cell proliferation assay with MCF7 cells; format: cell-based, human; conditions: concentrations as for HeLa
Experimental: as §2

NC(=O)C1CCCc2c1[nH]c1ccc(Cl)cc21 (stereo not drawn) [EX-527, reference compound]
H3K9 acetylation in HeLa cells [1]: no hyperacetylation | p53K382 acetylation in HeLa cells [1]: increased acetylation levels | H3K9 acetylation in HeLa cells ([1]; listed as 1): did not show clear hyperacetylation | colony forming of HeLa cells (HeLa cells [2]): completely suppressed colony forming | effect on Tm of Sirt1 (in words) (Sirt1): barely effected; also recorded: very small shift or no shift at all | migration of HeLa cells (wound healing), 24 h (HeLa cells [3]; 24 h, concentrations as in proliferation assay, performed once): failed to impair migration | wound healing of HeLa cells, 72 h (HeLa cells [3]; 72 h): mild effect on wound healing | γH2AX/H2AX levels without Camptothecin ([4]; 48 h, EX-527 10 μM, S1th 10 30 μM, S1th 12 20 μM, S1th 13 12 μM, SirReal2 30 μM): decreased | γH2AX/H2AX levels after addition of Camptothecin ([4]; Camptothecin 10 μM 2 h, same inhibitor concentrations): strong decrease | cell proliferation of HeLa cells (HeLa cells [5]): significantly decreased cell proliferation | colony forming capabilities of MCF7 cells (MCF7 cells [6]): significantly decreased | cell proliferation of MCF7 cells (MCF7 cells [7]): only have a mild effect
